Our source for the IC50 and Activity values is ChEMBL document CHEMBL4152353, “Synthesis of DNA interactive C3-trans-cinnamide linked β-carboline conjugates as potential cytotoxic and DNA topoisomerase I inhibitors” (Bioorg Med Chem, 2018).

Assay [1] concerns MCF7. The assay can be described thus: Cytotoxicity against human MCF7 cells after 48 hrs by MTT assay. It is filed as functional, cell-based. Conditions: MCF7, 48 h. For orientation: Formazan colour is commonly taken as a measure of viable cells.
Assay [2] relates to B16. The experiment in a line: Cytotoxicity against mouse B16 cells after 48 hrs by MTT assay. Format: functional, cell-based. Conditions: B16, 48 h.
For assay [3], the system named is HeLa. The experiment in a line: Cytotoxicity against human HeLa cells after 48 hrs by MTT assay. It is filed as functional, cell-based.
Assay [4] concerns NIH3T3. The experiment in a line: Cytotoxicity against mouse NIH/3T3 cells after 48 hrs by MTT assay. Format: cell-based. The settings on record: NIH3T3, 48 h.
In assay [5] the test system is A549. The experiment in a line: Cytotoxicity against human A549 cells after 48 hrs by MTT assay. It is filed as functional, cell-based. The settings on record: A549, 48 h.
Assay [6] has as its system Calf thymus DNA. The experiment in a line: Binding affinity to calf thymus DNA assessed as increase in viscosity at 15 uM by viscometric method. Format: nucleic-acid assay. The settings on record: Bos taurus.

Each structure is given as a SMILES string. pIC50: −log10 of the molar value. Calls of active or inactive are those of the source. No cut-off for these calls is given here.

The term pIC50 denotes the negative decadic logarithm of the IC50, by convention in mol/L. For the compound `COc1cccc2c1C(=O)c1c(O)c3c(c(O)c1C2=O)C[C@@](O)(C(=O)CO)C[C@@H]3O[C@H]1C[C@H](N)[C@H](O)[C@H](C)O1` [DOXORUBICIN], the pIC50 in assay [1] was 6.24; in assay [2], 6.17; in assay [3], 6.11; in assay [4] it was 5.76.

For the compound `COc1cc(/C=C/C(=O)NCc2cc3c([nH]c4ccccc43)c(-c3cc(OC)c(OC)c(OC)c3)n2)ccc1O`, the pIC50 is 7.74 in assay [5]; 7.76 in assay [1]; 7.72 in assay [2]; 7.59 in assay [3]; 7.37 in assay [4].

As for `COc1ccc(-c2nc(CNC(=O)/C=C/c3ccc(Cl)c(Cl)c3)cc3c2[nH]c2ccccc23)cc1`, the negative-log IC50 (pIC50) in assay [5] is 7.73; in assay [1], 7.78; in assay [2] it was 7.64; in assay [3], 7.66; in assay [4] it was 7.43.

Take `C/C=C/C(=O)NCc1cc2c([nH]c3ccccc32)c(-c2ccc(OC)cc2)n1`: the pIC50 was 5.47 in assay [5], 4.97 in assay [1], 5.27 in assay [3] and 5.57 in assay [4].

With `COc1ccc(-c2nc(CNC(=O)/C=C/c3cc(OC)c(OC)c(OC)c3)cc3c2[nH]c2ccccc23)cc1`, the pIC50 in assay [5] was 7.71; in assay [1], 7.86; in assay [2], 7.76; in assay [3], 7.64; in assay [4], 7.41.

For the compound `COc1cc(/C=C/C(=O)NCc2cc3c([nH]c4ccccc43)c(-c3cccc(F)c3)n2)ccc1O`, the pIC50 in assay [5] was 7.65; in assay [1], 7.75; in assay [2] it was 7.71; in assay [3], 7.62; in assay [4], 7.43.

For the compound `COc1ccc(-c2nc(CNC(=O)/C=C/c3cc(F)cc(F)c3)cc3c2[nH]c2ccccc23)cc1`, the negative-log IC50 (pIC50) in assay [5] is 7.70; in assay [1], 7.76; in assay [2], 7.62; in assay [3] it was 7.61; in assay [4], 7.43.

As to `COc1ccc(OC)c(/C=C/C(=O)NCc2cc3c([nH]c4ccccc43)c(-c3cccc(F)c3)n2)c1`, the pIC50 was 7.65 in assay [5]; 7.76 in assay [1]; 7.70 in assay [2]; 7.66 in assay [3]; 7.40 in assay [4].

On to `COc1cc(-c2nc(CNC(=O)/C=C/c3cccc(O)c3)cc3c2[nH]c2ccccc23)cc(OC)c1OC`, for which the pIC50 was 7.71 in assay [5]; 7.77 in assay [1]; 7.66 in assay [2]; 7.63 in assay [3]; 7.42 in assay [4].

As to `COc1cc(-c2nc(CNC(=O)/C=C/c3ccc(F)cc3)cc3c2[nH]c2ccccc23)cc(OC)c1OC`, the pIC50 in assay [5] is 7.73; in assay [1] it was 7.79; in assay [2] it was 7.76; in assay [3], 7.70; in assay [4], 7.37.

In the case of `O=C(/C=C/c1cccc(O)c1)NCc1cc2c([nH]c3ccccc32)c(-c2cccc(F)c2)n1`, the pIC50 in assay [5] is 7.63; in assay [1], 7.72; in assay [2], 7.60; in assay [3], 7.57; in assay [4], 7.45.

Take `COc1ccc(-c2nc(CNC(=O)/C=C/c3cc(OC)ccc3OC)cc3c2[nH]c2ccccc23)cc1`: the pIC50 is 7.72 in assay [5]; 7.78 in assay [1]; 7.65 in assay [2]; 7.60 in assay [3]; 7.46 in assay [4].

Turning to `CC[n+]1c(-c2ccccc2)c2cc(N)ccc2c2ccc(N)cc21`, in assay [6], the result was Active.

Take `COc1cc(-c2nc(CNC(=O)/C=C/c3ccc(Cl)c(Cl)c3)cc3c2[nH]c2ccccc23)cc(OC)c1OC`: the pIC50 was 7.69 in assay [5]; 7.76 in assay [1]; 7.77 in assay [2]; 7.59 in assay [3]; 7.41 in assay [4].

Regarding `COc1cc(-c2nc(CNC(=O)/C=C/c3cc(F)cc(F)c3)cc3c2[nH]c2ccccc23)cc(OC)c1OC`, the pIC50 in assay [5] is 7.67; in assay [1], 7.71; in assay [2] it was 7.62; in assay [3], 7.62; in assay [4] it was 7.44.

Turning to `O=C(/C=C/c1ccc(Cl)c(Cl)c1)NCc1cc2c([nH]c3ccccc32)c(-c2cccc(F)c2)n1`, the pIC50 was 7.74 in assay [5]; 7.77 in assay [1]; 7.72 in assay [2]; 7.60 in assay [3]; 7.41 in assay [4].

As to `COc1ccc(-c2nc(CNC(=O)CCCl)cc3c2[nH]c2ccccc23)cc1`, the pIC50 in assay [5], in assay [1], in assay [3] and in assay [4] was below 4.30 in each case.

As for `COc1ccc(OC)c(/C=C/C(=O)NCc2cc3c([nH]c4ccccc43)c(-c3cc(OC)c(OC)c(OC)c3)n2)c1`, the pIC50 in assay [5] was 7.73; in assay [1] it was 7.76; in assay [2] it was 7.72; in assay [3], 7.60; in assay [4] it was 7.41.

Regarding `COc1ccc(-c2nc(CNC(=O)/C=C/c3ccc(O)c(OC)c3)cc3c2[nH]c2ccccc23)cc1`, the pIC50 in assay [5] was 7.67; in assay [1], 7.76; in assay [2], 7.70; in assay [3], 7.60; in assay [4], 7.40.

For the compound `COc1cc(-c2nc(CNC(=O)/C=C/c3ccc(Cl)cc3)cc3c2[nH]c2ccccc23)cc(OC)c1OC`, the pIC50 is 7.72 in assay [5]; 7.76 in assay [1]; 7.73 in assay [2]; 7.57 in assay [3]; 7.45 in assay [4].

Turning to `O=C(/C=C/c1cc(F)cc(F)c1)NCc1cc2c([nH]c3ccccc32)c(-c2cccc(F)c2)n1`, the pIC50 in assay [5] was 7.68; in assay [1], 7.78; in assay [2], 7.74; in assay [3], 7.63; in assay [4] it was 7.44.

In the case of `COc1ccc(-c2nc(CNC(=O)/C=C/c3ccc(F)cc3)cc3c2[nH]c2ccccc23)cc1`, the pIC50 in assay [5] was 7.70; in assay [1], 7.74; in assay [2], 7.66; in assay [3], 7.64; in assay [4] it was 7.43.

`O=C(/C=C/c1ccc(F)cc1)NCc1cc2c([nH]c3ccccc32)c(-c2cccc(F)c2)n1`: the negative logarithm of the IC50 (pIC50) was 7.79 in assay [5]; 7.78 in assay [1]; 7.77 in assay [2]; 7.61 in assay [3]; 7.51 in assay [4].

`O=C(/C=C/c1ccc(Cl)cc1)NCc1cc2c([nH]c3ccccc32)c(-c2cccc(F)c2)n1`: the pIC50 in assay [5] is 7.71; in assay [1], 7.74; in assay [2], 7.74; in assay [3], 7.72; in assay [4], 7.36.

On to `COc1cc(/C=C/C(=O)NCc2cc3c([nH]c4ccccc43)c(-c3cc(OC)c(OC)c(OC)c3)n2)cc(OC)c1OC`, for which the pIC50 in assay [5] is 7.67; in assay [1], 7.78; in assay [2], 7.76; in assay [3] it was 7.63; in assay [4], 7.41.

As for `COc1cc(/C=C/C(=O)NCc2cc3c([nH]c4ccccc43)c(-c3cccc(F)c3)n2)cc(OC)c1OC`, the pIC50 in assay [5] is 7.75; in assay [1] it was 7.79; in assay [2] it was 7.70; in assay [3], 7.64; in assay [4], 7.44.

Turning to `C=CCNC(=O)/C=C/c1cccc(O)c1`, the pIC50 in assay [5], in assay [1], in assay [3] and in assay [4] was below 4.30 throughout.
